One data set concerns L929 mouse fibroblasts. The data set is described as follows: Cytotoxicity in normal cell line L929 (CCK-8 proliferation assay). Format: cell-based. The conditions noted are these: 48 h treatment, CCK-8, absorbance 450 nm, read-out: IC50 for proliferation of L929 cell lines. The procedure:
Concentration of L929 mouse fibroblasts was adjusted to 4×10^5 cells/mL. The cells were seeded in a 96 well plate with […] per well. Wells not supplied with the cells (blank group) were provided. The cells were cultivated on the plate and were allowed to adhere overnight. Then, cell culture supernatants were collected, and 200 μL of test compound at various concentrations were added to the corresponding cell culture supernatants. Control and compound-treated cell culture supernatants were included in each experiment with triplicate wells for each experimental group, and were cultivated for a further 48 h. Then, the resulting cell culture supernatants were again collected, and fresh medium supplemented with 10% CCK-8 solution was added thereto. Incubation for an additional 3 h was carried out. Thereafter, the absorbance of the medium was measured at 450 nm wavelength, and the inhibitory rate of cell proliferation by test compound was calculated according to the equation below: R (%)=1−(Aexperiment−Ablank)/(Acontrol−Ablank)
On the technique in general: Formazan colour is commonly taken as a measure of viable cells.

The target of another data set is T1, THRβ (Homo sapiens, UniProt P10828).
T1 construct: GST
T1 sequence (P10828 1-461): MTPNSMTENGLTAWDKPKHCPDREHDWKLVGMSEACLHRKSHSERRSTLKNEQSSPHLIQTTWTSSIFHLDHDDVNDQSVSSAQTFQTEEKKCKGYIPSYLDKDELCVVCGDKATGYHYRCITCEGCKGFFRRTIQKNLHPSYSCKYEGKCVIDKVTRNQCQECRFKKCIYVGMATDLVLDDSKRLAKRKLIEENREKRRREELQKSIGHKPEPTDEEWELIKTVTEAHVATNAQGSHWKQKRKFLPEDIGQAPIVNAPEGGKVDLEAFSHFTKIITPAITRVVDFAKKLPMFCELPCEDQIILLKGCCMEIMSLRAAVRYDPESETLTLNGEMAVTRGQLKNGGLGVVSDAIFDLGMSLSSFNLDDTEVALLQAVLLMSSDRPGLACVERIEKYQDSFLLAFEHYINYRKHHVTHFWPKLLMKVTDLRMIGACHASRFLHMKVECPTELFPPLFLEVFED
T1 sequence (P19793 225-462 partner limits assumed): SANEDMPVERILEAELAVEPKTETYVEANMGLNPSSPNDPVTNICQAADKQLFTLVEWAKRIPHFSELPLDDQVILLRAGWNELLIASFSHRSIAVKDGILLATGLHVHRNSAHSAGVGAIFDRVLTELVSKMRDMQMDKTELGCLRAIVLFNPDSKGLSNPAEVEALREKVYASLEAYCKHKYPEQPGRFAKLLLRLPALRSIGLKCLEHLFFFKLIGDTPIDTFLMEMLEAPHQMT
T1 sequence (Q15596 679-703 partner limits assumed): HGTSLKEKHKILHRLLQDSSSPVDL
The data set is described as follows: THRβ agonist activity, fluorescence ratio 665 nm/615 nm with EE-RxRα and biotin-GRIP. Format: biochemical. The conditions noted are these: incubated overnight at 4° C. The procedure:
(§1) Test compound was dissolved and serially diluted in dimethyl sulfoxide (DMSO) with a final compound concentration of 60 mM. […] Buffer 1 was employed again to prepare EE-RxRα at the same concentrations as those of THRα and THRβ, respectively. Buffer 1+5% DMSO was employed to prepare biotin-GRIP (THRα: […], THRβ: 100 nM). Buffer 2 (50 mM Tris, pH 7.4, 100 mM NaCl, and 0.2 mg/mL BSA) was employed to prepare a mixed solution of 2×Eu-anti-GST and 2×streptavidin-d2. 5 μL of the THRα (THRβ) solution+5 μL of EE-RxRα+2.5 μL of the DMSO solution of test compound+2.5 μL of biotin-GRIP+5 μL of the mixed solution of 2×Eu-anti-GST and 2×streptavidin-d2 was employed as the reaction system, and incubated overnight at 4° C.

A short description of data set [1]: Metabolic stability in human liver microsomes. The data set is classed as in vitro ADME. The conditions noted are these: pH 7.4, 37° C.; for half-life: read-out: T ½. The procedure: Microsomal incubations were performed in 0.05 M Tris-KCl buffer (pH 7.4) in the presence of test compound dissolved in DMSO at a series of concentrations, rat liver microsomes (RLMs) (S9 or human liver microsomes (HLMs)), rat liver cytoplasms (RLCs) (human liver cytoplasms (HLCs, 0.5 mg/mL)), 1.3 mM β-nicotinamide adenine dinucleotide phosphate sodium salt (NADP), 3.3 mM D-glucose-6-phosphate disodium salt (G-6-P), 0.4 units/mL glucose-6-phosphate dehydrogenase (G-6-PDH, type XII), and 3.3 mM MgCl2. The volume of the organic solvents was not more than 1% by volume with respect to the reaction system. After a preincubation of the mixture in a rotating mixer at 37° C. and 850 rpm for 3 min, hepatic microsomes were added to initiate incubation reactions, which were conducted at 37° C. for 30 min, 60 min, or 90 min, respectively. After the incubations were complete, the reactions were terminated by addition of an equal volume of ice cold acetonitrile, followed by addition of 20 μL of a 1 mg/mL solution of geniposide (internal standard) in methanol and then by centrifugation at 10,000 rpm for 10 min to precipitate protein. The […] was blown dry with nitrogen at 40° C. and then dissolved in 100 μL of methanol, which was used as mobile phase. 10 μL of the solution was sampled and analyzed by HPLC.

The target of the next data set is T2, THRα (Homo sapiens, UniProt P10827).
T2 construct: GST
T2 sequence (P10827 1-410 isoform P10827-2): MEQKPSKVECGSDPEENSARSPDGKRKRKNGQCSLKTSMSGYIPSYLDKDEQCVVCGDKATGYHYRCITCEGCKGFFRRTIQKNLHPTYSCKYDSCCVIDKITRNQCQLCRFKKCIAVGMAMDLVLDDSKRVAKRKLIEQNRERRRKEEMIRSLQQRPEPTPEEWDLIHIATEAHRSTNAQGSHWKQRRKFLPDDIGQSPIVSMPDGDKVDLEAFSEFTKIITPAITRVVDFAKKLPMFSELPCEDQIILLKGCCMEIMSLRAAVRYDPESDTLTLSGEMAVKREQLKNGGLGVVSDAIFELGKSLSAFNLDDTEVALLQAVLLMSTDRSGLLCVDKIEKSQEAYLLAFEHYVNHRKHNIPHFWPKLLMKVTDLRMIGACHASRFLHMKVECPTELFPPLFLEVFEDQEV
T2 sequence (P19793 225-462 partner limits assumed): T1 sequence (P19793 225-462 partner limits assumed)
T2 sequence (Q15596 679-703 partner limits assumed): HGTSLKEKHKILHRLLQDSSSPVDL
The data set is described as follows: THRα agonist activity, fluorescence ratio 665 nm/615 nm with EE-RxRα and biotin-GRIP. Format: biochemical. The conditions noted are these: incubated overnight at 4° C. The procedure:
as §1

The record followed here is patent US11964962B2, “Substituted pyridazinone compound and use thereof” (SHANDONG FIRST MEDICAL UNIVERSITY & SHANDONG ACADEMY OF …, priority 2020, dated 2024).

Turning to `N#Cc1nn(-c2cc(Cl)c(Oc3cc(CC4CCCC4)c(=O)[nH]n3)c(Cl)c2)c(=O)[nH]c1=O` [Compound 6], the IC50 with L929 mouse fibroblasts was more than 50 µM. Also, at THRβ, the EC50 (as a rule, the concentration that produces a half-maximal response) came to 0.0949 µM. Besides, in data set [1], the microsomal CLint (in general, the rate of metabolic loss divided by the concentration) was determined as 0.18 µL/min/mg and the half-life is 16.3 h. For the same molecule, on THRα, the EC50 worked out at 2.75 µM.

Turning to `N#Cc1nn(-c2ccc(Oc3cc(CC4CCCC4)c(=O)[nH]n3)c(F)c2)c(=O)[nH]c1=O` [Compound 7], in the data set with L929 mouse fibroblasts, the IC50 is more than 50 µM. Also, the EC50 at THRβ was 0.013 µM. In data set [1], the microsomal CLint worked out at 0.12 µL/min/mg and the half-life came out at 18.3 h. Also, the EC50 at THRα was 10 µM.

On to `Cc1c(Oc2ccc(-n3nc(C#N)c(=O)[nH]c3=O)cc2Cl)n[nH]c(=O)c1C` [Compound 24], for which the IC50 with L929 mouse fibroblasts was more than 50 µM. Further, the EC50 at THRβ was 0.0101 µM. Besides, in data set [1], the microsomal CLint is 0.452 µL/min/mg and the half-life was 14.5 h. Further, the EC50 on THRα was found to be 3.29 µM.

Take `CC(C)c1cc(=O)[nH]nc1Oc1ccc(-n2nc(C#N)c(=O)[nH]c2=O)c(Cl)c1` [Compound 36]: the IC50 in the data set on L929 mouse fibroblasts is more than 50 µM. In addition, the EC50 on THRβ worked out at 4.16 µM; on THRα, 13.8 µM.

Regarding `N#Cc1nn(-c2ccc(Oc3n[nH]c(=O)cc3C3CC3)c(Cl)c2)c(=O)[nH]c1=O` [Compound 37], the IC50 in the data set on L929 mouse fibroblasts was more than 50 µM. Further, the EC50 was 3.22 µM at THRβ and 0.001 µM on THRα.

Take `N#Cc1nn(-c2cc(Cl)c(Oc3n[nH]c(=O)cc3C3CCCC3)c(Cl)c2)c(=O)[nH]c1=O` [Compound 38]: the IC50 with L929 mouse fibroblasts was more than 50 µM. Moreover, the EC50 on THRβ turned out to be 0.783 µM; on THRα, 4.66 µM.

On to `N#Cc1nn(-c2ccc(Oc3n[nH]c(=O)cc3C3CCCC3)c(Cl)c2)c(=O)[nH]c1=O` [Compound 39], for which the IC50 in the data set with L929 mouse fibroblasts is more than 50 µM. For the same molecule, the EC50 at THRβ was 0.583 µM; on THRα, 3.22 µM.

Consider `CC(C)c1cc(Oc2cc(Cl)c(-n3cc(C#N)c(=O)[nH]c3=O)cc2Cl)n[nH]c1=O` [Compound 40], for which the IC50 in the data set on L929 mouse fibroblasts was more than 50 µM. In addition, the values for the EC50 at THRβ and on THRα were more than 63 µM and 24.1 µM, respectively.

With `CC(C)c1cc(Oc2ccc(-n3cc(C#N)c(=O)[nH]c3=O)c(Cl)c2)n[nH]c1=O` [Compound 41], the IC50 with L929 mouse fibroblasts is more than 50 µM. The EC50 was more than 60 µM at THRβ and 0.001 µM on THRα.

On to `N#Cc1cn(-c2cc(Cl)c(Oc3cc(C4CCC4)c(=O)[nH]n3)c(Cl)c2)c(=O)[nH]c1=O` [Compound 42, 1-(3,5-dichloro-4-((5-cyclobutyl-6-oxo-1,6-dihydropyridazin-3-yl)oxy)phenyl)-2,4-dioxo-1,2,3,4-tetrahydropyrimidine-5-carbonitrile], for which, in the data set on L929 mouse fibroblasts, the IC50 was more than 50 µM. Moreover, the results for the EC50 at THRβ and on THRα were 0.0257 µM and 1.81 µM, respectively.

With `CC(C)(C)Cc1cc(Oc2c(Cl)cc(-n3cc(C#N)c(=O)[nH]c3=O)cc2Cl)n[nH]c1=O` [Compound 43], the IC50 in the data set with L929 mouse fibroblasts was more than 50 µM. For the same molecule, the EC50 at THRβ was 0.0403 µM; on THRα, 6.62 µM.

`CC(C)(C)Cc1cc(Oc2cc(Cl)c(-n3cc(C#N)c(=O)[nH]c3=O)cc2Cl)n[nH]c1=O` [Compound 44]: in the data set with L929 mouse fibroblasts, the IC50 is more than 50 µM. Also, the EC50 is 0.042 µM at THRβ and 2.32 µM on THRα.

Regarding `COc1cc(-n2nc(C#N)c(=O)[nH]c2=O)ccc1Oc1n[nH]c(=O)c(C)c1C` [Compound 46], the IC50 in the data set with L929 mouse fibroblasts is more than 50 µM. Besides, the EC50 was found to be 1.4 µM at THRβ and 50.8 µM at THRα.

As to `CC(C)c1cc(Oc2c(Cl)cc(-c3c[nH]c(=O)c(O)c3)cc2Cl)n[nH]c1=O` [Compound 47, 6-(2,6-dichloro-4-(5-hydroxy-6-oxo-1,6-dihydropyridin-3-yl)phenoxy)-4-isopropylpyridazin-3(2H)-one], the IC50 in the data set on L929 mouse fibroblasts is more than 50 µM. Also, the EC50 came out at 1.65 µM at THRβ and 17.6 µM on THRα.

As to `CC(C)(C)c1cc(Oc2c(Cl)cc(-c3c[nH]c(=O)c(O)c3)cc2Cl)n[nH]c1=O` [Compound 48], the IC50 with L929 mouse fibroblasts is more than 50 µM. In addition, the EC50 was 0.745 µM on THRβ and 3.66 µM on THRα.

On to `CC(C)c1cc(Oc2c(Cl)cc(-c3nn[nH]n3)cc2Cl)n[nH]c1=O` [Compound 49, 6-(2,6-dichloro-4-(2H-tetrazol-5-yl)phenoxy)-4-isopropylpyridazin-3(2H)-one], for which, in the data set on L929 mouse fibroblasts, the IC50 was more than 50 µM. Moreover, the EC50 worked out at 0.254 µM at THRβ and 3.32 µM at THRα.

`CC(C)(C)c1cc(Oc2c(Cl)cc(-c3nn[nH]n3)cc2Cl)n[nH]c1=O` [Compound 50]: the IC50 in the data set with L929 mouse fibroblasts is more than 50 µM. Besides, the EC50 at THRβ was 0.465 µM; on THRα it was 2.59 µM.

`CC(C)c1cc(Oc2c(Cl)cc(-n3nc(C#N)c(=O)[nH]c3=O)cc2Cl)n[nH]c1=O` [MGL-3196, Resmetirom, reference compound]: in data set [1], the intrinsic metabolic clearance (microsomal CLint) was 2.21 µL/min/mg and the half-life was less than 6.67 h.
